The values that follow come from article PMC3454369, “Functional Redundancy of Class I Phosphoinositide 3-Kinase (PI3K) Isoforms in Signaling Growth Factor-Mediated Human Neutrophil Survival” (PLoS ONE, 2012).

The subject of data set [1] is Human neutrophils. Kind of data set: Morphologic analysis of human neutrophil apoptosis (light microscopy of cytospins). In kind it is cell-based. As to conditions: rhGM-CSF 10 ng/ml, 20 h; for Cytoplasmic vacuolation of human neutrophils: light microscopy, PI-103 at 1 µM or above, LY294002 10 µM.
Data set [2] relates to Human neutrophils. The data set can be described thus: rhGM-CSF-modulated human neutrophil apoptosis, annexin V/PI flow cytometry. In kind it is cell-based. As to conditions: rhGM-CSF 10 ng/ml; for Effect on rhGM-CSF-mediated human neutrophil survival: 20 h. The protocol:
To examine the effects of small molecule PI3K inhibitors on rhGM-CSF (10 ng/ml) -modulated apoptosis, neutrophils (5×10^6/ml) were re-suspended in Iscove’s modified Dulbecco medium (IMDM) supplemented with 10% autologous serum, 100 U/mL penicillin and 100 µg/mL streptomycin in non-tissue culture treated flat bottom Falcon Flexiwell plates in a humidified 5% CO2 atmosphere at 37°C.

The next data set has as its system PI3K Class I isoforms. Set-up: method as in PMID 20179189. As to conditions: competitive inhibition; cited from earlier work.
Data set [3] has as its system PKB (Akt) phosphorylation. Kind of data set: Western blot for rhGM-CSF-induced PKB (Akt Ser473) phosphorylation in human neutrophils. The format is cell-based. As to conditions: 20 min pre-incubation, rhGM-CSF 10 ng/ml 10 min. The protocol: Neutrophils were suspended at 5×10^6/ml and 0.5 ml aliquots were pre-incubated for 20 minutes with PI3K inhibitors at 37°C prior to treatment with GM-CSF 10 ng/ml for 10 min. The cells were washed with ice-cold phosphate-buffered saline and pelleted and resuspended in 50 µl of cold lysis buffer (20 mM Tris-HCl (pH 7.5), 150 mM NaCl, 1 mM EDTA, 1 mM EGTA, 1% Triton X-100, 2.5 mM sodium pyrophosphate, 1 mM β-glycerophosphate, 1 mM PMSF, 1 mM sodium fluoride, 2 mM sodium orthovanadate, 10 µg/ml leupeptin, 10 µg/ml aprotinin) and incubated on ice for 10 minutes. The Triton-insoluble fraction was pelleted by centrifugation at 10 000 g for 15 min at 4°C. The protein concentration of the supernatant was determined using a colorimetric assay (bicinchoninic acid; BCA, BIO Rad Laboratories). SDS sample buffer was added to each neutrophil lysate and heated to 99°C for 5 min. 30 µg of protein/well was loaded on to each 10% SDS-polyacrylamide gel and subjected to electrophoresis at 150 V and transferred to a PVDF Immobilon membrane using a semi-dry transfer system at 130 mA for 90 minutes. The membrane was blocked for 1 hour with 5% non-fat dry milk in Tris-HCl buffered saline containing 0.1% (w/v) Tween 20 then immunoblotted overnight at 4°C in TBS-Tween-20 with primary monoclonal antibody to total Akt rabbit mAb or Phospho-Akt (Ser^473) rabbit mAb (Cell Signaling Technology 40585 and 9272 respectively) at a dilution of 1∶1000 in TBS-Tween 20 with 5% Bovine Serum Albumin. The membrane was washed three times in TBS-Tween 20 and incubated with ECL HRP-conjugated donkey anti-rabbit IgG (Fab2 fragment; GE Healthcare) at a dilution of 1∶10 000 in TBS-Tween 20 for 1 hour at room temperature. Membranes were developed using ECL-Plus kit (GE Healthcare).
Figure 5 Combined inhibition of all Class IA PI3Ks abrogates rhGM-CSF mediated PKB phosphorylation. […] Western blots from the experiments describe in B. above were scanned and analyzed using the Aida Image Analyzer 3.27 software package. […]

For data set [4], the system named is Murine peripheral blood neutrophils. As to conditions: for Effect on constitutive murine neutrophil apoptosis: no rmGM-CSF, 8 h and 4 h.
Data set [5] is described as follows: Cell accessibility of the inhibitor (footnote of Table 3). As to conditions: footnote mark at the inhibitor's name. Set-up: key: *: Poor cell accessibility.
The test system of data set [6] is Peripheral blood neutrophils from exacerbating COPD patients. Kind of data set: Ex vivo apoptosis of peripheral blood neutrophils from patients with exacerbation of COPD, annexin V/PI flow cytometry. The format is cell-based, human. As to conditions: 20 hours culture; for Effect on reduced spontaneous apoptosis of neutrophils from exacerbating COPD patients: ex vivo, 20 min pre-incubation. (In general: A flow cytometer gives signals particle by particle.)

Data set [7] relates to Human neutrophils. Kind of data set: fMLP-stimulated neutrophil oxidative burst (luminol/HRP chemiluminescence). As to conditions: fMLP 100 nM. The format is cell-based. The protocol:
All PI3K inhibitors were dissolved in dimethyl sulfoxide (DMSO) and stored at −20°C. […] The concentration response curves for NVS-PI3-3 and NVS-PI3-4 on the neutrophil respiratory burst generated as described in [10] are shown in Figure 2.  Figure 2 Effect of NVS-PI3-4 and NVS-PI3-3 on Neutrophil Oxidative Burst. Human neutrophils were suspended at 4×10^6/ml in HBSS at 37°C and either primed with TNFα 10 ng/ml or treated with vehicle control, prior to the addition of NVS-PI3-4 (A) or NVS-PI3-3 (B) at the indicated concentrations. […] Triangular symbols represent TNFα-primed cells; unprimed cells depicted by squares.

The target of a further data set is p110α (Homo sapiens, UniProt P42336). Kind of data set: biochemical.
Another data set deals with p110δ (Homo sapiens, UniProt O00329). Kind of data set: biochemical.
A further data set deals with p110β (Homo sapiens, UniProt P42338). The data set can be described thus: biochemical.
The next data set addresses p110γ (Homo sapiens, UniProt P48736). Kind of data set: biochemical.
The subject of data set [8] is Human neutrophils. The data set can be described thus: rhGM-CSF-modulated human neutrophil apoptosis, annexin V/PI flow cytometry. In kind it is cell-based. As to conditions: no GM-CSF; 20 h (also 6 h); LY294002 10 µM.
[9] abbreviates: C57BL/6, rmGM-CSF 0.1 ng/ml, 8 hours.
Where [10] appears, read: C57BL/6, rmGM-CSF 0.1 ng/ml, 8 hours, concentration-dependent.
The mark [11] stands for this setting: TNFα 10 ng/ml-primed human neutrophils, read-out: Primed IC50, neutrophil oxidative burst.
Where [12] appears, read: unprimed human neutrophils, read-out: Unprimed IC50, neutrophil oxidative burst.
Setting [13] is: inhibitor 1 µM, used individually.
Setting [14] is: inhibitor 3 µM, used individually.

Like-named read-outs stand apart in the source and are kept apart here.

Chain of p110β (P42338 whole entry, species assumed): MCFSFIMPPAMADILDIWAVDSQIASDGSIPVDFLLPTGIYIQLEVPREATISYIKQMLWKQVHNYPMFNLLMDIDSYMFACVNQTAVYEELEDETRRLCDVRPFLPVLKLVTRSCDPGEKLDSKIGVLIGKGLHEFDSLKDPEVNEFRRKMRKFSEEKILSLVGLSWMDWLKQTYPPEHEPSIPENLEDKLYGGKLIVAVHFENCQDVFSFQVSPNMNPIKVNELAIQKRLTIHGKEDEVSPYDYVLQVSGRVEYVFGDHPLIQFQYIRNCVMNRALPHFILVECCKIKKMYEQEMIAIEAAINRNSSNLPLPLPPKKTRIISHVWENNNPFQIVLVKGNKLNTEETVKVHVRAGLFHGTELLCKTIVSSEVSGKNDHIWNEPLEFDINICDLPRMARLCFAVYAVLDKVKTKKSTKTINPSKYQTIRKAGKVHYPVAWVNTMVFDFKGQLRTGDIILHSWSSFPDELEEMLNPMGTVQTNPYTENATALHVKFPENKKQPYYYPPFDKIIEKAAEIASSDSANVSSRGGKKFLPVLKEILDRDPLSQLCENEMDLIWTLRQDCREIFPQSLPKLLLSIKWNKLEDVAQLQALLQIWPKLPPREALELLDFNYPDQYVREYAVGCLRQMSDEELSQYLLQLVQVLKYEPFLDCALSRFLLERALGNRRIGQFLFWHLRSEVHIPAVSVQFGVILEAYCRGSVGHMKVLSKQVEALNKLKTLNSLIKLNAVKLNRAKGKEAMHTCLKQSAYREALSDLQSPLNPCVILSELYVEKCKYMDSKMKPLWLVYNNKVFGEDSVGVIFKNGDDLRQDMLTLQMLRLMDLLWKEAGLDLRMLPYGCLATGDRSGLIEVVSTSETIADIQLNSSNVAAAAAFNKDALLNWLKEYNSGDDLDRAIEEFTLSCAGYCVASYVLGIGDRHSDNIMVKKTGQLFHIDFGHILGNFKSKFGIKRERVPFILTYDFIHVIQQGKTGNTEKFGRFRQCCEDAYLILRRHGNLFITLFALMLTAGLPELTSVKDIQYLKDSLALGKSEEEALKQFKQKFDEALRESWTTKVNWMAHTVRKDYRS
Chain of p110β (P27986 whole entry partner, species assumed): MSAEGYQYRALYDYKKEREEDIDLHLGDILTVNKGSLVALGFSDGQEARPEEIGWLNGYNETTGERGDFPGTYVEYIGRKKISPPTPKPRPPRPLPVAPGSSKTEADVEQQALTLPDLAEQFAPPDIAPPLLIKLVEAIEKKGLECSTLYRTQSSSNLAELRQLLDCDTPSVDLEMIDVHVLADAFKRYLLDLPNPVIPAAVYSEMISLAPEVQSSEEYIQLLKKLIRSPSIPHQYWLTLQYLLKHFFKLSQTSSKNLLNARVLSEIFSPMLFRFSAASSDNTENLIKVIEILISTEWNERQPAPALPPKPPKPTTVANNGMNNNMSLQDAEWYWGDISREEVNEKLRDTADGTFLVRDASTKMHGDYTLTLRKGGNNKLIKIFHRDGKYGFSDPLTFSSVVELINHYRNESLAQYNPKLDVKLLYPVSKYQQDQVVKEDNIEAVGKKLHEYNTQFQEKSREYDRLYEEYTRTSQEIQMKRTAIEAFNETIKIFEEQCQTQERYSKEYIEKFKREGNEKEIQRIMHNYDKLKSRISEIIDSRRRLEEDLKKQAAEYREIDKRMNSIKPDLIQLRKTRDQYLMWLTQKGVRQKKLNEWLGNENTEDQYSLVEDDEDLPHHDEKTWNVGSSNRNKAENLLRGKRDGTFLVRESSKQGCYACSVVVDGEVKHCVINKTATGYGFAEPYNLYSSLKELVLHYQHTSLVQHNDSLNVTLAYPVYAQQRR
Chain of p110δ (O00329 whole entry, species assumed): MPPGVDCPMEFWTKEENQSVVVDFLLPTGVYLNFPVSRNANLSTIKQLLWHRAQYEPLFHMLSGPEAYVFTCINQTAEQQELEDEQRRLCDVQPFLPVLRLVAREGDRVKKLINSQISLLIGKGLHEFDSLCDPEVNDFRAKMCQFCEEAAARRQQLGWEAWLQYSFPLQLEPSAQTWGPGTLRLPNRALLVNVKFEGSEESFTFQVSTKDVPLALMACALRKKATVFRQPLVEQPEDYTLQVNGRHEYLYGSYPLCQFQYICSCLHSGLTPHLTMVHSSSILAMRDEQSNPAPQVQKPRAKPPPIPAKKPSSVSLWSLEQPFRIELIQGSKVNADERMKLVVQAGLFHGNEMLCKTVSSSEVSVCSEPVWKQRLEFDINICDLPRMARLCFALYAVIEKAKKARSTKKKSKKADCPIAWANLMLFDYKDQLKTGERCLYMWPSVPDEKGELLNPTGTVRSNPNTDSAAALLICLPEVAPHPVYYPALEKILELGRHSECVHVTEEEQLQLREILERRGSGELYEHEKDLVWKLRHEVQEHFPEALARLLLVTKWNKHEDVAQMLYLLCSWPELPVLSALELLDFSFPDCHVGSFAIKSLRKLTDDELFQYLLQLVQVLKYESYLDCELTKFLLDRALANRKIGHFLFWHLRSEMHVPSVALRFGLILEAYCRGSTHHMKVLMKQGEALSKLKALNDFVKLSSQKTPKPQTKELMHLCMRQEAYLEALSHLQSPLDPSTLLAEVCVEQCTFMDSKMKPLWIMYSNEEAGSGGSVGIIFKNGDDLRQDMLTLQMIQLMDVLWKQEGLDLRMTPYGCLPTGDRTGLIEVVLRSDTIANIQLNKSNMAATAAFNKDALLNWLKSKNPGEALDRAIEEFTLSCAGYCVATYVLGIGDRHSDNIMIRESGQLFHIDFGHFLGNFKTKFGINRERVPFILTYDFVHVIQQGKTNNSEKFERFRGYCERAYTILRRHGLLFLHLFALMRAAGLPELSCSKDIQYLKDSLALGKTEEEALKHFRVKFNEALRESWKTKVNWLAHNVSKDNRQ
Chain of p110δ (P27986 whole entry partner, species assumed): as the sequence (P27986 whole entry partner, species assumed) above
Chain of p110α (P42336 whole entry, species assumed): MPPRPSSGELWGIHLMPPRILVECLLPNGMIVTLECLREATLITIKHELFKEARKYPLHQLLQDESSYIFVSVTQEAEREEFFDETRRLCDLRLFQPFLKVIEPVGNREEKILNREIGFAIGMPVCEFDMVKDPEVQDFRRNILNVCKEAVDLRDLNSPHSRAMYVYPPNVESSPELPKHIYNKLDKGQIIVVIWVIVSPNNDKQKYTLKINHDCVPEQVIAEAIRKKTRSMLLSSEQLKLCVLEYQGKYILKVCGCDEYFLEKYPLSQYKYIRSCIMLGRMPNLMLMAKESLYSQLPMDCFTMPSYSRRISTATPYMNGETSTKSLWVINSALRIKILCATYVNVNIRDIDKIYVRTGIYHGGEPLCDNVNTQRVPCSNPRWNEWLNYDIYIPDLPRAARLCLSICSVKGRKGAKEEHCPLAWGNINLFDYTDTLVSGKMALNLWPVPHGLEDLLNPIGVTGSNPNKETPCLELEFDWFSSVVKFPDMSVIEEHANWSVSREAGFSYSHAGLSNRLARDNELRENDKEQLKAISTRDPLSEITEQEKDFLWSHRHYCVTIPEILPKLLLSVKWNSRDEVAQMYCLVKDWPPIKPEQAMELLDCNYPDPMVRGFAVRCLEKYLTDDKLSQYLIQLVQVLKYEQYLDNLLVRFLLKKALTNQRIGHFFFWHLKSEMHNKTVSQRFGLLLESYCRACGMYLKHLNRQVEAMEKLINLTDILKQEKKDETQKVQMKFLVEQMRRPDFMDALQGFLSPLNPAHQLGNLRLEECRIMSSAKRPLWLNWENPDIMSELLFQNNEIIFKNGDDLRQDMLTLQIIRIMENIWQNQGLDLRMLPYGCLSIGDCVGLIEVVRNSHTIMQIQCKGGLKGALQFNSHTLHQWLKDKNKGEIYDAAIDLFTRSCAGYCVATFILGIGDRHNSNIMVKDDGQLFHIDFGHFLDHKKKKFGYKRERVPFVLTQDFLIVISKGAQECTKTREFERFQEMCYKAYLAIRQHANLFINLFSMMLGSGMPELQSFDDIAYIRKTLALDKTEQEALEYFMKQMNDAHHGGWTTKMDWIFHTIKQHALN
Chain of p110α (P27986 whole entry partner, species assumed): as the sequence (P27986 whole entry partner, species assumed) above
Chain of p110γ (P48736 whole entry, species assumed): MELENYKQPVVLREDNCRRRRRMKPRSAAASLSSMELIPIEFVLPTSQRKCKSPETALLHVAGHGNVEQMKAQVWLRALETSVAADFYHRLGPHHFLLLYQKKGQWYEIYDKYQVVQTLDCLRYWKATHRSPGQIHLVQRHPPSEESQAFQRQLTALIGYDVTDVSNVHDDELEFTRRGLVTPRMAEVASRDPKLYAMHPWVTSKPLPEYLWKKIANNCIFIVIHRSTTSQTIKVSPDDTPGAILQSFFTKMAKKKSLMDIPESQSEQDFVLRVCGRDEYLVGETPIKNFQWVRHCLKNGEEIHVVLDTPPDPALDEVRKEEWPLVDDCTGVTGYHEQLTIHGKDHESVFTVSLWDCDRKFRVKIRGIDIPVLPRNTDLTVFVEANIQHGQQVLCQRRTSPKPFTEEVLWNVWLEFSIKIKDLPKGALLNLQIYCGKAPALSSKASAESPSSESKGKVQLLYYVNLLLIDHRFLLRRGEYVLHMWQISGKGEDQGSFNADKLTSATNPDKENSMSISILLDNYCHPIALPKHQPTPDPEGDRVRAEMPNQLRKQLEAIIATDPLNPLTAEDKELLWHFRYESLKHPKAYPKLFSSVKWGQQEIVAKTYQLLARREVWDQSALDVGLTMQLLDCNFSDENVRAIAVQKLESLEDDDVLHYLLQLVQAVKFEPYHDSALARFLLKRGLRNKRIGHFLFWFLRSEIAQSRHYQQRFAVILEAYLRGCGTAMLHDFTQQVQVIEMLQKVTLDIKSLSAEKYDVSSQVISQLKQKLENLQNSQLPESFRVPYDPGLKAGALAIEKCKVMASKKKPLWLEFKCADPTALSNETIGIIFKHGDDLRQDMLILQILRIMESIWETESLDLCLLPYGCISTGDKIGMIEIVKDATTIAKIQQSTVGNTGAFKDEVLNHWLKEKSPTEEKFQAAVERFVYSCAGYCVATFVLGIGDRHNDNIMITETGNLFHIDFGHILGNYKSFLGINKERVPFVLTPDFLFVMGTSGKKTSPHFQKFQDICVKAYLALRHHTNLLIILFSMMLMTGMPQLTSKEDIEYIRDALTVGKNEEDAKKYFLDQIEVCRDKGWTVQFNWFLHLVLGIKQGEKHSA

As to `Oc1cccc(-c2nc(N3CCOCC3)c3oc4ncccc4c3n2)c1` [PI-103], in the data set on Human neutrophils [1] (PI-103 10 µM), the “Morphological assessment of apoptosis in neutrophils treated with rhGM-CSF and inhibitor” value is on record as “did not reveal classical apoptotic morphology”. In addition, the “Cytoplasmic vacuolation of human neutrophils” value with Human neutrophils [1] is listed as “extensive cytoplasmic vacuolation was seen”. Further, the “Effect on rhGM-CSF-mediated human neutrophil survival” value with Human neutrophils [2] (inhibitor 10 µM) was “did indeed appear to inhibit the effects of rhGM-CSF on neutrophil apoptosis”. In the data set with PI3K Class I isoforms, the “IC50 against all PI3K Class I isoforms” value is “submicromolar range”. Further, the “Effect on GM-CSF-induced PKB phosphorylation” value in data set [3] is “abolished”. In [4], the “Vacuole formation or necrosis in murine neutrophils” value is listed as “did not exhibit significant vacuolation” and the “Effect on constitutive murine neutrophil apoptosis” value was “did not affect constitutive apoptosis”. Besides, the “Concentration giving maximal effect on rmGM-CSF survival effect” value in data set [4] (setting [9]) was 3 µM. The “Effect on rmGM-CSF cytoprotective (survival) effect in murine neutrophils” value in data set [4] (setting [10]) is reported as “blocked the rmGM-CSF survival effect”. In addition, the “Effect on rmGM-CSF-induced survival, wild type neutrophils” value in data set [4] (PI-103 0.3 µM, C57BL/6, rmGM-CSF 0.1 ng/ml, 8 hours) was “had no effect on rmGM-CSF-induced survival of wild type neutrophils”. The “Effect on rmGM-CSF-induced survival, p110γKO and p110δKOγKO neutrophils” value in [4] (PI-103 0.3 µM, rmGM-CSF 0.1 ng/ml, 8 hours) is “attenuated the rmGM-CSF survival effect”. The Cell accessibility entry in data set [5] is recorded as “PI-103 (pan class I) ^*”.
On to `O=c1[nH]c2ccccc2n1C1CCN(Cc2ccc(-c3nc4cc5nc[nH]c5cc4nc3-c3ccccc3)cc2)CC1` [AKT-i1/2], for which the “Effect on GM-CSF-mediated neutrophil survival” value in the data set on Human neutrophils [1] (increasing concentrations, morphology) is “suppresses GM-CSF-mediated neutrophil survival”.
Regarding “rhGM-CSF: Recombinant human granulocyte-macrophage colony stimulating factor, obtained from R&D Systems”, in the data set on Human neutrophils [2] (6–24 h), the “Effect of GM-CSF on human neutrophil apoptosis” value is listed as “delays human neutrophil apopotosis”. Besides, in [6] (10 ng/ml), the “Effect of rhGM-CSF on survival of neutrophils from exacerbating COPD patients” value is “caused a fully PI3K-dependent additional survival effect”.
By IC50 is commonly meant the concentration that gives 50% inhibition. For the molecule `CC(=O)c1ccc(-c2sc(NC(=O)NCCC(=O)NC(C)(C)C)nc2C)cc1` [NVS-PI3-4], the IC50 in the data set with Human neutrophils [7] (setting [11]) was determined as 4000 nM; with Human neutrophils [7] (setting [12]) it was 710 nM; against p110α, 1800 nM; against p110δ, 750 nM; on p110β it was 250 nM. Further, in the data set on Human neutrophils [2] (setting [13]), the “Effect on rhGM-CSF-mediated human neutrophil survival” value was “failed to affect GM-CSF-mediated survival”.
Turning to `COC[C@H]1OC(=O)c2coc3c2[C@@]1(C)C1=C(C3=O)[C@@H]2CCC(=O)[C@@]2(C)C[C@H]1OC(C)=O` [Wortmannin], in the data set with Human neutrophils [2] (inhibitor 100 nM, replenished during culture), the “Effect on rhGM-CSF-mediated human neutrophil survival” value is on record as “blocked the anti-apoptotic effect of GM-CSF, although less completely than 10 µM LY294002”. Further, in data set [3], the “Effect on GM-CSF-induced PKB phosphorylation” value is listed as “abolished”.
With `O=C1NC(=O)/C(=C\c2ccc3nccnc3c2)S1` [AS605240], in the data set with Human neutrophils [2] (setting [14]), the “Effect on rhGM-CSF-mediated human neutrophil survival” value is “failed to abrogate GM-CSF mediated survival”. The Cell accessibility entry in [5] is “AS605240 (γ) ^*”.
`Cc1cc(NC(=O)CCNC(=O)Nc2nc(C)c(-c3ccc(-n4cccn4)cc3)s2)no1` [NVS-PI3-3]: the half-inhibitory concentration (IC50) in the data set on Human neutrophils [7] (setting [11]) came to 525 nM; in the data set with Human neutrophils [7] (setting [12]), 44 nM; at p110α, 180 nM; at p110δ, 3 nM; on p110β, 600 nM; against p110γ, 310 nM. Moreover, the “Effect on rhGM-CSF-mediated human neutrophil survival” value with Human neutrophils [2] (setting [13]) was “failed to affect GM-CSF-mediated survival”.
In the case of `O=c1cc(N2CCOCC2)oc2c(-c3ccccc3)cccc12` [LY294002], the “Cytoplasmic vacuolation of human neutrophils” value in the data set on Human neutrophils [1] was “not apparent”. Besides, the “Effect on rhGM-CSF-mediated human neutrophil survival” value with Human neutrophils [2] (inhibitor 10 µM) is given as “prevented rhGM-CSF-mediated human neutrophil survival”. Besides, in [3], the “Effect on GM-CSF-induced PKB phosphorylation” value was “abolished”. For the same molecule, the “Effect on constitutive human neutrophil apoptosis” value in the data set on Human neutrophils [8] was “without affecting the extent of constitutive neutrophil apoptosis”. In [4], the “Vacuole formation or necrosis in murine neutrophils” value was “nor did it induce vacuole formation or necrosis” and the “Effect on constitutive murine neutrophil apoptosis” value is recorded as “had no effect on the rate of constitutive murine neutrophil apoptosis”. Besides, the “Concentration giving maximal effect on rmGM-CSF survival effect” value in [4] (setting [9]) is recorded as 10 µM. In addition, the “Effect on rmGM-CSF cytoprotective (survival) effect in murine neutrophils” value in data set [4] (setting [10]) was “abrogated the rmGM-CSF cytoprotective effect”. For the same molecule, in data set [6], the “Effect on reduced spontaneous apoptosis of neutrophils from exacerbating COPD patients” value was “failed to restore the ability of exacerbating patient-derived neutrophils to undergo apoptosis in a timely fashion”.
`CC#C[C@]1(O)CC[C@H]2[C@@H]3CCC4=CC(=O)CCC4=C3[C@@H](c3ccc(N(C)C)cc3)C[C@@]21C` [RU-486]: the “Effect on reduced spontaneous apoptosis of neutrophils from exacerbating COPD patients” value in data set [6] was “lack of effect”.
With `Cc1cc(C(C)Nc2ccccc2C(=O)O)c2nc(N3CCOCC3)cc(=O)n2c1` (centres unmarked) [HBC-417], in the data set with Human neutrophils [2] (setting [13]), the “Effect on rhGM-CSF-mediated human neutrophil survival” value is recorded as “failed to affect GM-CSF-mediated survival”.
The same measure, in the same setting: in the case of `NC(=O)[C@@H]1CCCN1C(=O)Nc1nc2ccc(-c3cnc(N)c(C(F)(F)F)c3)cc2s1` [NVS-PI3-2] it was “failed to affect GM-CSF-mediated survival”.
In the case of `Cc1ccccc1-n1c(Cn2cnc3c(N)ncnc32)nc2cccc(C)c2c1=O` [IC87114], in the data set with Human neutrophils [2] (setting [14]), the “Effect on rhGM-CSF-mediated human neutrophil survival” value is reported as “failed to abrogate GM-CSF mediated survival”.

B1: rmGM-CSF: Recombinant mouse granulocyte-macrophage colony stimulating factor, purchased from Peprotech (protein, UniProt P01587 18-141, looked up)
Granulocyte-macrophage …: APTRSPITVTRPWKHVEAIKEALNLLDDMPVTLNEEVEVVSNEFSFKKLTCVQTRLKIFEQGLRGNFTKLKGALNMTASYYQTYCPPTPETDCETQVTTYADFIDSLKTFLTDIPFECKKPGQK
B1: the “EC50 for delay of murine neutrophil apoptosis” value in [4] (C57BL/6 peripheral blood neutrophils, 8 hour, AnV/PI flow cytometry) stood at 0.0075 ng/mL. In addition, in [4] (concentration-dependent, all time points studied (0–12 h)), the “Effect on murine neutrophil apoptosis” value is on record as “significantly delayed”.
